Non-standard residues stand in square brackets, D forms with d. Residues, ends and D or L forms follow the SMILES beside them. *: point of attachment. dPhe(4-NHCONH2) = NC(=O)Nc1ccc(C[C@@H](N)C(=O)O)cc1; Dihydroorotyl(S) = O=C1C[C@@H](C(=O)*)NC(=O)N1; dPhe(4-Cl) = N[C@H](Cc1ccc(Cl)cc1)C(=O)O; Phe(4-NH2) = Nc1ccc(C[C@H](N)C(=O)O)cc1; d2Nal = N[C@H](Cc1ccc2ccccc2c1)C(=O)O; Lys(iPr) = CC(C)NCCCC[C@H](N)C(=O)O; d3Pal = N[C@H](Cc1cccnc1)C(=O)O
Experiments:
Assay type in all cases: in vivo, human
[1] = system: Patient with Multiple Sclerosis; test: Multiple sclerosis patient treated with degarelix (with concomitant fampridine)
Protocol: • person, diagnosed with multiple sclerosis (MS). Their MS was of the progressive type; characterized by a steady deterioration in function. • Fulfilled the 2010 McDonald Criteria for the diagnosis of MS (1).
• So far results of clinical trials for progressive MS have generally been disappointing. Currently, there is no FDA-approved treatment for progressive MS disease. • December 2014 received first dose of degarelix 240 mg s.c. • Received degarelix 80 mg s.c. every two weeks thereafter.
• This patient's EDSS has remained stable at 6.5, as expected over such a short time period of 6 weeks. A score of 6.5 is equivalent to only being able to walk with the aid of a walker, as in their case. This was evident at baseline and 6 weeks.
• Patient-reported outcomes are of increasing importance in trials of progressive multiple sclerosis (2). The most frequently used global patient-reported outcome in multiple sclerosis is the MSIS-29 (3). This has been correlated with clinical and imaging metrics specifically in progressive forms of the disease (4). According to a recent review (2), patient reported outcomes in trials of progressive multiple sclerosis can be used to validate MRI or clinical metrics, and increased use of patient-reported outcomes in trials of progressive multiple sclerosis will be expected to help satisfy regulators' requirements that treatments show relevant benefit for patients. • At baseline, they scored 121 on the MSIS-29. By 6 weeks, their score was reduced to 110. A clinically significant minimal difference is a score change of 8. Therefore this reduction of 11 in their score is considered clinically significant (5).
• The MSWS-12 (6) was designed as a disease-specific patient-based instrument for use in clinical trials and clinical practice, to capture the complex impact of MS on walking ability. […] One of the most important attributes of the MSWS-12 in comparison to other assessments of walking in MS patients is its responsiveness to change. […] By 6 weeks, their score was reduced to 53. This is a 12% improvement. A minimal clinically significant difference has not yet been established.
• The MFIS-5 is a modified form of the Fatigue Impact Scale (10) based on items derived from interviews with MS patients concerning how fatigue impacts their lives. This instrument provides an assessment of the effects of fatigue in terms of physical, cognitive, and psychosocial functioning. • At baseline, they scored 20 on the MFIS-5. By 6 weeks, their score was reduced to 12. This was a reduction of 40%, which is clinically significant.
• The T25FW is another common endpoint in trials. At baseline, they took 16.7 seconds to walk 25 feet, and by 6 weeks they took 15.2 seconds. This improvement in walking speed supports the patient's reported improved outcomes. […] This improvement in progressive MS is likely to also be observed in the relapsing-remitting type of MS. This is because the relapsing-remitting type gives similar signs and symptoms as the progressive type to patients over time.
• For the last 2.5 years, they had been taking stable concomitant fampridine, a potassium channel blocker, for symptomatic treatment for MS. Their MS disease activity had been increasing gradually over these 2.5 years, requiring them to use crutches, and eventually a walker. In December 2014, they started experimental treatment with degarelix. […] They describe in an interview that for the first time they could easily complete certain exercises with their under extremities that they had previously never been able to do during their physiotherapy visits. • Due to this effect, they decided to discontinue their long-term stable fampridine medication on 05.04.15. […] This improvement in progressive MS is likely to also be observed in the relapsing-remitting type of MS. This is because the relapsing-remitting type gives similar signs and symptoms as the progressive type to patients over time.

[2] = system: Patient with Spondyloarthritis; test: Spondyloarthritis patient treated with degarelix; settings: for BASDAI: baseline 3.8
Protocol: • person, diagnosed with spondyloarthritis • Fulfilled the ASAS criteria for axial radiographic spondyloarthritis. • October 2014 received first dose of degarelix, 240 mg s.c. • Received degarelix 80 mg s.c. every two weeks thereafter. Disease activity in ankylosing spondylitis/spondyloarthritis is measured by the BASDAI (Bath Ankylosing Spondylitis Disease Activity Index (1)), has been extensively validated in clinical trials (2-3), and is one of the most commonly used outcome measures in clinical trials. This is a composite index that evaluates fatigue, axial and peripheral pain, stiffness and enthesopathy. Their BASDAI was at 3.8 at baseline. In October 2014 they received their first dose of degarelix 240 mg s.c. By 2 weeks, their BASDAI had reduced to 2.9, and by 8 weeks it had reduced to 1.3, remission. At 4 months, their BASDAI continues to be low at 1.5. • Response to therapy in clinical practice is defined as improvement of 2 units or 50% on a 0-10 scale of the BASDAI, and expert opinion that the treatment should be continued. Their reduction by 4 months was 2.3. We shall continue treatment.

Patient with Psoriasis = test: Psoriasis patient treated with degarelix
Protocol: The PASI score is a standardized score for assessing disease activity in psoriasis.
He therefore received testosterone supplementation in the form of Testogel containing 50 mg of testosterone, first daily; thereafter every 3 days to maintain testosterone levels within the normal range.
One trial examined 15 patients with psoriasis who were taking lithium.

[3] = progressive MS patient, by 6 weeks

CC(=O)N[C@H](Cc1ccc2ccccc2c1)C(=O)N[C@H](Cc1ccc(Cl)cc1)C(=O)N[C@H](Cc1cccnc1)C(=O)N[C@@H](CO)C(=O)N[C@@H](Cc1ccc(NC(=O)[C@@H]2CC(=O)NC(=O)N2)cc1)C(=O)N[C@H](Cc1ccc(NC(N)=O)cc1)C(=O)N[C@@H](CC(C)C)C(=O)N[C@@H](CCCCNC(C)C)C(=O)N1CCC[C@H]1C(=O)N[C@H](C)C(N)=O [degarelix] (Ac-[d2Nal][dPhe(4-Cl)][d3Pal]S[Phe(4-NH2)](Dihydroorotyl(S))[dPhe(4-NHCONH2)]L[Lys(iPr)]P[dA]-NH2)
Timed walk test ([1]; MS patient, 29.4.15, after fampridine discontinued 05.04.15, from 11.9): 14.0 s | Expanded Disability Status Scale (EDSS) ([1]; progressive MS patient, 6 weeks, stable vs baseline): 6.5 | MFIS-5 reduction [1, 3]: 40% | MSIS-29 score reduction [1, 3]: 11 | MSWS-12 improvement [1, 3]: 12% | MFIS-5 score ([1]; progressive MS patient, by 6 weeks, baseline 20): 12 | MSWS-12 score ([1]; progressive MS patient, by 6 weeks, baseline 60): 53 | MSIS-29 score ([1]; progressive MS patient, by 6 weeks, baseline 121): 110 | Timed 25 Foot Walk (T25FW) ([1]; progressive MS patient, by 6 weeks, stable fampridine, baseline 16.7): 15.2 s | General function (patient reported) ([1]; progressive MS patient, from around 4 weeks, further by 6 weeks): general improvement | BASDAI ([2]; at 4 months): 1.5 | BASDAI ([2]; by 2 weeks): 2.9 | BASDAI reduction ([2]; by 4 months): 2.3 | BASDAI ([2]; by 8 weeks, remission): 1.3 | Testosterone (normal 8-35 nmol/L) (Patient with Psoriasis; after the first week, before 12 nmol/L): < 1 nmol/L | Improvement in psoriasis (Patient with Psoriasis; at 6 months): stable | PASI absolute reduction (Patient with Psoriasis; by 8 weeks): 12.3 points | PASI reduction (Patient with Psoriasis; by 8 weeks): 23% | PASI score (Patient with Psoriasis; by 8 weeks, baseline 53.6): 41.3 | Testosterone (normal 8-35 nmol/L) (Patient with Psoriasis; week 8, under testosterone substitution (Testogel)): 9 nmol/L

Reference: patent publication US20160346255A1, “METHODS, AGENTS AND COMPOSITIONS FOR TREATMENT OF INFLAMMATORY CONDITIONS” (Betanien Hospital, priority 2014, published 2016)
